Key:
[1] = system: Human B Lymphocyte cell line, SU-DHL-8; assay: Relative cell viability, CCK-8, SU-DHL-8; format: cell-based; conditions: 48 hours
Experimental: Human-derived B lymphoma cell line SU-DHL-8 (Cat. #CRL-2961) purchased from ATCC was cultured in RPMI-1640 medium containing 10% FBS, 100 U/mL penicillin, and 100 μg/mL streptomycin.
The cell culture medium was then harvested, centrifuged at 1,300 rpm for 5 minutes, and the supernatant was removed. The cells were resuspended in the same medium and dispensed into a 96-well plate (Costar 96-well cell culture plate, Corning) at 90 μL per well, resulting in the conditions specified in Table 5.
Then, 10 μL of CCK-8 was added to each well, and the plates were incubated again at 37° C. in a 5% CO2 incubator for 4 hours.
In other words, when the survival rate of untreated cells (DMSO) is set at 100%, the relative cell survival rate in each group treated with the drug at different concentrations is indicated.

[2] = system: T cells isolated from mouse spleen; assay: T cell proliferation inhibition, CFSE flow cytometry, CD3/CD28 activation; format: cell-based; conditions: CD3/CD28 activated, 3 days
Experimental: To verify the T cell proliferation inhibitory effect of the compounds according to the present invention, the following experiment was performed based on flow cytometry analysis using carboxyfluorescein diacetate succinimidyl ester (CFSE), a fluorescent dye that binds to intracellular molecules via covalent bonds.
Spleens were extracted from 7-week-old C57BL/6 mice, ground, and then separated into single cells using a strainer (40 μm pore size, SPL). Red blood cells were removed using ACK (Ammonium-Chloride-Potassium) lysis buffer to isolate white blood cells.
Finally, using a MACS Magnetic Stand and LS column, T cells were isolated from the spleen.
The T cells isolated from the spleen were resuspended in 1 mL of free medium (RPMI-1640+200 U/mL penicillin+200 μg/mL streptomycin), and 0.3 μL of CFSE (10 mM) was added. The mixture was incubated at 37° C. for 5 minutes.
Free medium (10 mL) was added to stop the reaction, and the cells were centrifuged to obtain the cell pellet.
RPMI 1640 medium containing 10% FBS, 100 U/mL penicillin, 100 μg/mL streptomycin, and resuspended the cells. The cells were then seeded into a 96-well plate at a density of 2×10^5 cells per well and activated with CD3 and CD28 antibodies (0.5 μg/mL each) to activate T cells.
The compound diluted in DMSO was added at concentrations of 10 nM, 100 nM, 1 μM, 10 μM, 30 μM, and 50 μM, with three wells per concentration, and cultured at 37° C. and 5% CO2 for three days. The cells were then analyzed using a FACS Canto instrument.
The proliferation inhibition rate (%) was calculated using the following formula: […]

| SMILES | Proliferation inhibition rate (%) ([2]; compound 100 nM) | Proliferation inhibition rate (%) ([2]; compound 1 μM) | Proliferation inhibition rate (%) ([2]; compound 10 μM) | Proliferation inhibition rate (%) ([2]; compound 30 μM) | Proliferation inhibition rate (%) ([2]; compound 50 μM) | Proliferation inhibition rate (%) ([2]; compound 10 nM) | further results |
| --- | --- | --- | --- | --- | --- | --- | --- |
| CN1CCN(C(=O)OC(C)(C)C)CC1CCCCCCCCNC(=O)c1cccnc1N (stereo not drawn) [Compound 12, tert-Butyl 3-(8-(2-aminonicotinamide)octyl)-4-methylpiperazine-1-carboxylate] | – | – | – | – | – | – | Relative cell viability (%) ([1]; SU-DHL-8, 1 μM): 7.60%; Relative cell viability (%) ([1]; SU-DHL-8, 10 μM): 3.79%; Relative cell viability (%) ([1]; SU-DHL-8, 30 μM): 1.64%; Relative cell viability (%) ([1]; SU-DHL-8, 50 μM): 1.13% |
| Nc1ncccc1C(=O)NCCCCCCCCCCCCN1CCC(O)CC1 [Compound 48, 2-Amino-N-(12-(4-hydroxypiperidin-1-yl)dodecyl) nicotinamide] | 100.00 | 100.00 | 100.00 | 100.00 | 100.00 | – | – |
| CN(CCCCCCCCCCCCNC(=O)c1cccnc1N)C(C)(C)C [Compound 53, 2-Amino-N-(12-(tert-butyl(methyl)amino)dodecyl) nicotinamide] | 100.00 | 100.00 | 100.00 | 100.00 | 100.00 | – | – |
| Nc1ncccc1C(=O)NCCCCCCCCCCCCN1CCN(CCO)CC1 [Compound 54, 2-Amino-N-(12-(4-(2-hydroxyethyl)piperazin-1-yl)dodecyl) nicotinamide] | 100.00 | 100.00 | 100.00 | 100.00 | 100.00 | – | – |
| Cl.O=C(NCCCCCCCCCCCCN1CCNCC1)c1ccc(-c2ccccc2)o1 [Compound 90, 5-Phenyl-N-(12-(piperazin-1-yl)dodecyl) furan-2-carboxamide Hydrochloride] | – | – | 100.00 | 100.00 | 100.00 | – | – |
| COC1CCN(CCCCCCCCCCCCNC(=O)c2cccnc2N)CC1 [Compound 94, 2-amino-N-(12-(4-methoxypiperidin-1-yl)dodecyl) nicotinamide] | 100.00 | 100.00 | 100.00 | 100.00 | 100.00 | – | – |
| Nc1ncccc1C(=O)NCCCCCCCCCCCCN1CCN(C=O)CC1 [Compound 97, 2-amino-N-(12-(4-formylpiperazin-1-yl)dodecyl) nicotinamide] | – | 100.00 | 100.00 | 100.00 | 100.00 | – | – |
| CC(C)(C)OC(=O)NC1CCN(CCCCCCCCCCCCNC(=O)c2cccnc2N)CC1 [Compound 101, tert-Butyl (1-(12-(2-aminonicotinamido)dodecyl)piperidin-4-yl)carbamate] | – | – | – | – | – | – | inhibition at 0.01 µM ([2]; Mus musculus, T-cell, 72 h, compound 10 nM, read-out: Proliferation inhibition rate (%)): -0.15%; inhibition at 0.1 µM ([2]; Mus musculus, T-cell, 72 h, compound 100 nM, read-out: Proliferation inhibition rate (%)): 100%; inhibition at 1 µM ([2]; Mus musculus, T-cell, 72 h, compound 1 μM, read-out: Proliferation inhibition rate (%)): 100%; inhibition at 10 µM ([2]; Mus musculus, T-cell, 72 h, compound 10 μM, read-out: Proliferation inhibition rate (%)): 100%; inhibition at 30 µM ([2]; Mus musculus, T-cell, 72 h, compound 30 μM, read-out: Proliferation inhibition rate (%)): 100%; inhibition at 50 µM ([2]; Mus musculus, T-cell, 72 h, compound 50 μM, read-out: Proliferation inhibition rate (%)): 100% |
| CC(C)N1CCN(CCCCCCCCCCCCNC(=O)c2cccnc2N)CC1 [Compound 104, 2-Amino-N-(12-(4-isopropylpiperazin-1-yl)dodecyl) nicotinamide] | 100.00 | 100.00 | 100.00 | 100.00 | 100.00 | 100.00 | – |
| CC(C)(C)OC(=O)N1CCN(CCCCCCCCCCCCNC(=O)c2cccnc2N)CC1 [Compound 111, tert-butyl-4-(12-(2-aminonicotinamido)dodecyl) piperazine-1-carboxylate] | 100.00 | 100.00 | 100.00 | 100.00 | 100.00 | 0.00 | – |
| CN1CCN(CCCCCCCCCCCCNC(=O)c2cccnc2F)CC1 [Compound 121, 2-fluoro-N-(12-(4-methylpiperazin-1-yl)dodecyl) nicotinamide] | 0.00 | 0.00 | 30.00 | 100.00 | 100.00 | 0.00 | – |
| Nc1ncccc1C(=O)NCCCCCCCCCCCCN1CC(F)(F)C1 [Compound 122, 2-Amino-N-(12-(3,3-difluoroazetidin-1-yl)dodecyl) nicotinamide] | 0.00 | 80.00 | 100.00 | 100.00 | 100.00 | 0.00 | – |
| COC1CCN(CCCCCCCCCCCCNC(=O)c2cccnc2N)C1 (stereo not drawn) [Compound 126, 2-amino-N-(12-(3-methoxypyrrolidin-1-yl)dodecyl) nicotinamide] | 100.00 | 100.00 | 100.00 | 100.00 | 100.00 | – | Proliferation inhibition rate (%) ([2]; compound 10 nM, listed as K-PB-48, 0.01 µM): 0.00% |
| Nc1ncccc1C(=O)NCCCCCCCCCCCCN1CCOC1=O [Compound 127, 2-amino-N-(12-(2-oxooxazolidin-3-yl)dodecyl) nicotinamide] | – | – | 100.00 | 100.00 | 100.00 | – | – |
| Nc1ncccc1C(=O)NCCCCCCCCCCCCNC1CCOC1 (stereo not drawn) [Compound 128, 2-amino-N-(12-((tetrahydrofuran-3-yl)amino)dodecyl) nicotinamide] | 100.00 | 100.00 | 100.00 | 100.00 | 100.00 | – | – |
| Nc1ncccc1C(=O)NCCCCCCCCCCCCN1CC=CC1 [Compound 129, 2-amino-N-(12-(2,5-dihydro-1H-pyrrol-1-yl)dodecyl) nicotinamide] | 90.00 | 100.00 | 100.00 | 100.00 | 100.00 | 0.00 | – |

— patent US20260184700A1, “PDK1 REGULATORY COMPOUND AND COMPOSITION CONTAINING THE SAME” (PROVIBIO CO., LTD., priority 2024, published 2026)
